Results taken from US20150225369A1, “DDR2 INHIBITORS FOR THE TREATMENT OF OSTEOARTHRITIS” (Merck Patent GmbH, priority 2012, published 2015).

molecular target: T1, His-tagged human recombinant DDR-2 kinase domain (His-TEV-DDR2 467-855 aa) (Homo sapiens, UniProt Q16832); test: Autophosphorylation assay for biochemical activity testing of DDR2 (HTRF); conditions: biochemical DDR2 autophosphorylation
T1 construct: His-TEV-DDR2 467-855 aa
T1 sequence (Q16832 467-855): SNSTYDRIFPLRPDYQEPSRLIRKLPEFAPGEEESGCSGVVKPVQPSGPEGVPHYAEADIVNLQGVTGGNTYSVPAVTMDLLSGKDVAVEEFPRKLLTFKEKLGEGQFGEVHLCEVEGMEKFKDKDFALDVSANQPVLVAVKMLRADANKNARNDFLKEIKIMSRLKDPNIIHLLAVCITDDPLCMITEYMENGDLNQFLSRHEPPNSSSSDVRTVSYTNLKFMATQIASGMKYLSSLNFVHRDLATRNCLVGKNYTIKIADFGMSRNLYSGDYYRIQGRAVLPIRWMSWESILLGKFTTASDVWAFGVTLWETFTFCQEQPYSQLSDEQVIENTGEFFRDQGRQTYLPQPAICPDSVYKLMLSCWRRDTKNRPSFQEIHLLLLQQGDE
Method in brief: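 Phospho-tyrosine was detected by HTRF between XL665 anti-6His and cryptate anti-phosphotyrosine PT66 antibodies, using the emission ratio. Inhibition was referenced to the inhibitor-free reaction.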

IC50 [nM]	Structure (SMILES)
32	CNC(=O)c1cc(Oc2ccc(CNC(=O)Nc3cc(C(F)(F)F)ccc3OCCNS(C)(=O)=O)cc2)ccn1 [compound 180, 4-(4-{3-[2-(2-Methanesulfonylamino-ethoxy)-5-trifluoromethyl-phenyl]-ureidomethyl}-phenoxy)-pyridine-2-carboxylic acid methylamide]
4900	CNC(=O)c1cc(Oc2ccc(CNC(=O)Nc3ccccc3)cc2)ccn1 [compound 181, 4-{4-[(3-Phenyl-ureido)-methyl]-phenoxy}-pyridine-2-carboxylic acid methylamide]
660	CNC(=O)c1cc(Oc2ccc(CNC(=O)Nc3cc(C)c(Cl)cc3OCCNC(=O)C(F)(F)F)cc2)ccn1 [compound 187, 4-[4-(3-{4-Chloro-5-methyl-2-[2-(2,2,2-trifluoro-acetylamino)-ethoxy]-phenyl}-ureidomethyl)-phenoxy]-pyridine-2-carboxylic acid methylamide]
180	CNC(=O)c1cc(Oc2ccc(CNC(=O)Nc3cc(C)c(Cl)cc3OCCNS(C)(=O)=O)cc2)ccn1 [compound 193, 4-(4-{3-[4-Chloro-2-(2-methanesulfonylamino-ethoxy)-5-methyl-phenyl]-ureidomethyl}-phenoxy)-pyridine-2-carboxylic acid methylamide]
64	CNC(=O)c1cc(Oc2ccc(CNC(=O)Nc3cc(C(F)(F)F)c(Cl)cc3OCCNS(C)(=O)=O)cc2)ccn1 [compound 194, 4-(4-{3-[4-Chloro-2-(2-methanesulfonylamino-ethoxy)-5-trifluoromethyl-phenyl]-ureidomethyl}-phenoxy)-pyridine-2-carboxylic acid methylamide]
96	CNC(=O)c1cc(Oc2ccc(CNC(=O)Nc3cc(C(F)(F)F)ccc3OCCO)cc2)ccn1 [compound 197, 4-(4-{3-[2-(2-Hydroxy-ethoxy)-5-trifluoromethyl-phenyl]-ureidomethyl}-phenoxy)-pyridine-2-carboxylic acid methylamide]
≥ 100000	CNC(=O)c1cc(Oc2ccc(CNC(=O)Nc3cc(C(F)(F)F)ccc3OC(C)(C)C(N)=O)cc2)ccn1 [compound 199, 4-(4-{3-[2-(1 -Carbamoyl-1-methyl-ethoxy)-5-trifluoromethyl-phenyl]-ureidomethyl}-phenoxy)-pyridine-2-carboxylic acid methylamide]
43	CNC(=O)c1cc(Oc2ccc(CNC(=O)Nc3cc(Cl)c(C)cc3OC)cc2F)ccn1 [compound 216, 4-{4-[3-(5-Chloro-2-methoxy-4-methyl-phenyl)-ureidomethyl]-2-fluoro-phenoxy}-pyridine-2-carboxylic acid methylamide]
21	CNC(=O)c1cc(Oc2ccc(CNC(=O)Nc3cc(C(F)(F)F)ccc3OC)cc2F)ccn1 [compound 217, 4-{2-Fluoro-4-[3-(2-methoxy-5-trifluoromethyl-phenyl)-ureidomethyl]-phenoxy}-pyridine-2-carboxylic acid methylamide]
150	CNC(=O)c1cc(Oc2ccc(CNC(=O)Nc3cc(C)c(Cl)cc3OC)cc2F)ccn1 [compound 218, 4-{4-[3-(4-Chloro-2-methoxy-5-methyl-phenyl)-ureidomethyl]-2-fluoro-phenoxy}-pyridine-2-carboxylic acid methylamide]
84	CCOc1ccc(C(F)(F)F)cc1NC(=O)NCc1ccc(Oc2ccnc(C(=O)NC)c2)c(C)c1 [compound 229, 4-{4-[3-(2-Ethoxy-5-trifluoromethyl-phenyl)-ureidomethyl]-2-methyl-phenoxy}-pyridine-2-carboxylic acid methylamide]
89	CCOc1ccc(C(F)(F)F)cc1NC(=O)NCc1ccc(Oc2ccnc(C(=O)NC)c2)cc1 [compound 230, 4-{4-[3-(2-Ethoxy-5-trifluoromethyl-phenyl)-ureidomethyl]-phenoxy}-pyridine-2-carboxylic acid methylamide]
100	CNC(=O)c1cc(Oc2ccc(CNC(=O)Nc3cc(C(F)(F)F)c(Cl)cc3OC)cc2F)ccn1 [compound 231, 4-{4-[3-(4-Chloro-2-methoxy-5-trifluoromethyl-phenyl)-ureidomethyl]-2-fluoro-phenoxy}-pyridine-2-carboxylic acid methylamide]
440	CNC(=O)c1cc(Oc2ccc(CNC(=O)Nc3cc(C(F)(F)F)c(Cl)cc3OCCN3C(=O)c4ccccc4C3=O)cc2)ccn1 [compound 242, 4-[4-(3-{4-Chloro-2-[2-(1,3-dioxo-1,3-dihydro-isoindol-2-yl)-ethoxy]-5-trifluoromethyl-phenyl}-ureidomethyl)-phenoxy]-pyridine-2-carboxylic acid methylamide]
620	CNC(=O)c1cc(Oc2ccc(CNC(=O)Nc3cc(C)c(Cl)cc3OCCN(C)C(=O)OC(C)(C)C)cc2)ccn1 [compound 244, [2-(5-Chloro-4-methyl-2-{3-[4-(2-methylcarbamoyl-pyridin-4-yloxy)-benzyl]-ureido}-phenoxy)-ethyl]-methyl-carbamic acid tert-butyl ester]
9200	O=C(NCc1ccc(Oc2ccncc2)cc1)Nc1ccccc1 [compound 245, 1-Phenyl-3-[4-(pyridin-4-yloxy)-benzyl]-urea]
230	Cc1cc(NC(=O)NCc2ccc(Oc3ccncc3)c(C)c2)c(OCCN(C)C)cc1Cl [compound 246, 1-[4-Chloro-2-(2-dimethylamino-ethoxy)-5-methyl-phenyl]-3-[3-methyl-4-(pyridin-4-yloxy)-benzyl]-urea]
770	COc1cc(Cl)c(C)cc1NC(=O)NCc1ccc(Oc2ccncc2)c(C)c1 [compound 248, 1-(4-Chloro-2-methoxy-5-methyl-phenyl)-3-[3-methyl-4-(pyridin-4-yloxy)-benzyl]-urea]
650	Cc1cc2nccc(Oc3ccc(CNC(=O)Nc4ccccc4)cc3)c2o1 [compound 249, 1-[4-(2-Methyl-furo[3,2-b]pyridin-7-yloxy)-benzyl]-3-phenyl-urea]
1200	Cc1cc(NC(=O)NCc2ccc(Oc3ccncn3)c(C)c2)c(OCCN(C)C)cc1Cl [compound 250, 1-[4-Chloro-2-(2-dimethylamino-ethoxy)-5-methyl-phenyl]-3-[3-methyl-4-(pyrimidin-4-yloxy)-benzyl]-urea]
440	Cc1cc(NC(=O)NCc2ccc(Oc3cc(N)ncn3)c(C)c2)c(OCCN(C)C)cc1Cl [compound 251, 1-[4-(6-Amino-pyrimidin-4-yloxy)-3-methyl-benzyl]-3-[4-chloro-2-(2-dimethylamino-ethoxy)-5-methyl-phenyl]-urea]
750	COc1cc(Cl)c(C)cc1NC(=O)NCc1ccc(Oc2ccnc3cc(C)oc23)c(C)c1 [compound 252, 1-(4-Chloro-2-methoxy-5-methyl-phenyl)-3-[3-methyl-4-(2-methyl-furo[3,2-b]pyridin-7-yloxy)-benzyl]-urea]
70	Cc1cc2nccc(Oc3ccc(CNC(=O)Nc4cc(C)c(Cl)cc4OCCN(C)C)cc3C)c2o1 [compound 253, 1-[4-Chloro-2-(2-dimethylamino-ethoxy)-5-methyl-phenyl]-3-[3-methyl-4-(2-methyl-furo[3,2-b]pyridin-7-yloxy)-benzyl]-urea]
31	Cc1cc(NC(=O)NCc2ccc(Oc3ccnc(N)c3)c(C)c2)c(OCCN(C)C)cc1Cl [compound 254, 1-[4-(2-Amino-pyridin-4-yloxy)-3-methyl-benzyl]-3-[4-chloro-2-(2-dimethylamino-ethoxy)-5-methyl-phenyl]-urea]

Structure (SMILES)	IC50 [nM]
CC(=O)Nc1cc(Oc2ccc(CNC(=O)Nc3cc(C)c(Cl)cc3OCCN(C)C)cc2C)ccn1 [compound 247, N-[4-(4-{3-[4-Chloro-2-(2-dimethylamino-ethoxy)-5-methyl-phenyl]-ureidomethyl}-2-methyl-phenoxy)-pyridin-2-yl]-acetamide]	6
